In US8962664B2, “Selective glycosidase inhibitors and uses thereof” (Simon Fraser University, priority 2006, dated 2015):
“Also recorded” adds a separate entry of the source.

How the values were obtained:
[1] = Nine-month repeat dose toxicology study in mice: hematology (CBC) and serum chemistry; assay type: in vivo, wild-type JNPL3 mice; details: oral, nine months
Description: (§1) The toxicological effects of repeated oral administration of (3aR,5R,6S,7R,7aR)-5-(hydroxymethyl)-2-propyl-5,6,7,7a-tetrahydro-3aH-pyrano[3,2-d]thiazole-6,7-diol (NAG-Bt) and (3aR,5R,6S,7R,7aR)-2-(ethylamino)-5-(hydroxymethyl)-5,6,7,7a-tetrahydro-3aH-pyrano[3,2-d]thiazole-6,7-diol (NAG-AE) to wild-type JNPL3 mice over nine months was measured. All animals were obtained from Taconic Farms, Inc. (model number 001638-W-F), and were 10-12 weeks of age at delivery, designated “week 1” of the study. In week 1, the mice were split into three groups: Group E received vehicle alone throughout the study; Group F1 received 100 mg/kg/day NAG-Bt in their food from week 1 to week 15, then were switched to 500 mg/kg/day NAG-AE in their drinking water from week 16 to week 40; Group F2 received 100 mg/kg/day NAG-Bt in their food from week 1 to week 15 then were switched to 1000 mg/kg/day NAG-Bt in their drinking water from week 16 to week 40. […] In week 40, blood and urine samples were collected from animals in each group; the urine samples for animals in each group were pooled prior to analysis, while the blood samples were analyzed individually.

[2] = Nine-month repeat dose toxicology study in mice: urinalysis; assay type: in vivo, wild-type JNPL3 mice; details: mice dosed orally nine months, week 40, pooled urine; F2: NAG-Bt 100 then 1000 mg/kg/day (n = 2); F1: NAG-Bt 100 then NAG-AE 500 mg/kg/day (n = 3)
Description: as §1

[3] = Nine-month repeat dose toxicology study in mice: general observations; assay type: in vivo, wild-type JNPL3 mice; details: oral, nine months, comparatively high levels
Description: as §1

[4] = system: tau phosphorylation and NFT formation; experiment: Reduction of NFT formation in transgenic P301L JNPL3 mice; assay type: in vivo; details: oral, Group B NAG-Bt 100 then 1000 mg/kg/day; for protein O-GlcNAc modification in hippocampal brain sections: Group D NAG-AE 500 mg/kg/day weeks 16 to 32, anti-OGlcNAc staining; for tau phosphorylation and NFT formation in hippocampal brain sections: Group D NAG-AE 500 mg/kg/day weeks 16 to 32, anti-phospho Tau-Ser404 staining, vs untreated transgenic Group A
Description: Animal Dosing and Tissue Collection. Hemizygous transgenic female JNPL3 mice overexpressing human mutant tau protein (P301L) and wild type control mice were obtained from Taconic Farms, Inc. (model numbers 001638-T-F and 001638-W-F, respectively). The mice were 10-12 weeks of age at delivery, designated “week 1” of the study. In week 1, the mice were split into four groups: Group A (transgenic mice) received vehicle alone throughout the study; Group B (transgenic mice) received 100 mg/kg/day NAG-Bt in their food from week 1 to week 15, then were switched to 1000 mg/kg/day NAG-Bt in their drinking water from week 16 to week 32; Group D (transgenic mice) received vehicle alone from weeks 1 to 15, and then 500 mg/kg/day NAG-AE in their drinking water from weeks 16 to 32; Group E (wild-type) received vehicle alone throughout the study. In week 32, three animals per group were sacrificed and tissues were collected. Transgenic mice and controls were sacrificed using a CO2 chamber. About 45 seconds after they stopped breathing, they were perfused transcardially with 30 mL of 0.9% NaCl buffer followed by 30 mL of 4% paraformaldehyde (w/v in 1× phosphate-buffered saline, PBS, pH 7.4). The brains were then carefully dissected and post-fixed in 4% parformaldehyde before being cryoprotected in 20% sucrose (w/v in 1×PBS) for 24 hours at 4° C.
Cryostat sectioning. The brains were then mounted with optimal cutting temperature (OCT) medium (Tissue Tek) and sectioned sagittally on a Reichert-Jung Cryocut 1800 (Leica) using Feather microtome blades (Tissue Tek) at 50 μm and placed in 1×PBS for further processing. The cryostat temperature was set at −17° C. to −19° C.
Immunohistochemical Staining. Free-floating 50 μm sagittal sections (lateral about 0.6 mm from midline, Mouse Brain in Stereotaxic Coordinates, second edition, by George Paxinos and Leith B. J. Franklin) were permeabilized with 1×PBS containing 0.3% Triton X-100 for 15 min. After blocking with 10% goat serum and 2.5% BSA for 1 h at room temperature, sections were incubated with specific antibodies overnight at 4° C. (primary antibodies: anti-OGlcNAc, Covance; anti-phospho Tau-ser404, Santa Cruz). The sections then were washed three times with 0.3% Triton X-100 in PBS for 15 min each and incubated with specific secondary antibody conjugated with Cy3 or FITC for 1.5 h at room temperature in the dark. After several washes in 1×PBS, sections were mounted on slides and air-dried in the dark. Once dry, Vectashield Mounting Medium (Vector Laboratories, Inc.) was added to the slide before applying coverslips. Coverslips were sealed with clear nail enamel and slides were stored in dark at 4° C. For negative control staining, sections were incubated without primary antibodies.
Imaging. […]

[5] = Eight-month repeat dose toxicology study in rats: general observations and organ weights; assay type: in vivo, Sprague-Dawley rats
Description: The toxicological effects of repeated oral administration of (3aR,5R,6S,7R,7aR)-5-(hydroxymethyl)-2-propyl-5,6,7,7a-tetrahydro-3aH-pyrano[3,2-d]thiazole-6,7-diol (NAG-Bt) to Sprague-Dawley rats over eight months was measured. All animals were obtained from Charles-River as 5-week old healthy male Sprague-Dawley rats. Animals were given one week to acclimatize and at six weeks of age the appropriate treatment was initiated. Eight animals were fed food containing 100 mg/kg/day of NAG-Bt for eight months. Eight additional animals fed with food containing no inhibitor were used as controls. […] After four months of dosing, blood and urine samples were collected from four rats in each group.
At the end of eight months, all animals were sacrificed and their organs removed and weighed.

[6] = rat, in vivo, po, 100 mg/kg/day

CCNC1=N[C@@H]2[C@@H](O)[C@H](O)[C@@H](CO)O[C@@H]2S1 [NAG-AE, (3aR,5R,6S,7R,7aR)-2-(ethylamino)-5-(hydroxymethyl)-5,6,7,7a-tetrahydro-3aH-pyrano[3,2-d]thiazole-6,7-diol]
changes in ALT, AST, or sorbitol dehydrogenase (liver toxicity) [1]: no changes | Urine Appear [2]: Slcloudy | Urine Bilirubin [2]: Neg | Urine Blood [2]: Neg | Urine Cocci [2]: Neg | Urine Color [2]: Yellow | Urine Creatinine [2]: 3105.4 | Urine Epith [2]: Few | Urine Glucose [2]: Neg | Urine Ketones [2]: Neg | Urine Protein [2]: Neg | Urine RBC [2]: Neg | Urine Rods [2]: Neg | Urine Sp. Grv. [2]: 1.039 | Urine Urobil [2]: Normal | Urine WBC [2]: Neg | Urine pH [2]: 6 | toxicological consequences of long-term dosing [3]: no serious toxicological consequences | protein O-GlcNAc modification in hippocampal brain sections [4]: dramatically elevated | tau phosphorylation and NFT formation in hippocampal brain sections [4]: dramatically reduced; also recorded: significantly decreased

CCCC1=N[C@@H]2[C@@H](O)[C@H](O)[C@@H](CO)O[C@@H]2S1 [NAG-Bt, (3aR,5R,6S,7R,7aR)-5-(hydroxymethyl)-2-propyl-5,6,7,7a-tetrahydro-3aH-pyrano[3,2-d]thiazole-6,7-diol]
body weight, food consumption, water consumption, and blood glucose levels [5, 6]: no significant differences | gross pathological abnormalities or behavioural differences [5, 6]: No gross pathological abnormalities or behavioural differences | toxicological consequences of long-term dosing ([5]; rats, oral 100 mg/kg/day, eight months): no serious toxicological consequences | changes in ALT, AST, or sorbitol dehydrogenase (liver toxicity) [1]: no changes | Urine Appear [2]: Clear | Urine Bilirubin [2]: Neg | Urine Cocci [2]: Neg | Urine Color [2]: Yellow | Urine Creatinine [2]: 7790.9 | Urine Epith [2]: Few | Urine Glucose [2]: Neg | Urine Ketones [2]: Neg | Urine Protein [2]: Neg | Urine RBC [2]: Neg | Urine Rods [2]: Neg | Urine Sp. Grv. [2]: 1.05 | Urine Urobil [2]: Normal | Urine WBC [2]: Neg | Urine pH [2]: 5 | toxicological consequences of long-term dosing [3]: no serious toxicological consequences | protein O-GlcNAc modification in hippocampal brain sections [4]: dramatically elevated | tau phosphorylation and NFT formation in hippocampal brain sections [4]: dramatically reduced; also recorded: significantly decreased
